Where two headings read alike, the source gives them in different places.
Assays:
[1] = molecular target: adenylyl cyclase, Type I, purified recombinant (Bos taurus, UniProt P19754); experiment: Inhibition of purified recombinant Type I adenylyl cyclase (Table II); assay type: biochemical; conditions: forskolin eluate
[2] = molecular target: rat brain adenylyl cyclase; experiment: Inhibition of detergent-dispersed rat brain adenylyl cyclase (Table I); assay type: biochemical; conditions: for inhibition of adenylyl cyclase activity compared with adenosine: in words, relative to adenosine
Protocol: Detergent-dispersed adenylyl cyclase from rat brain was prepared as previously described^58. Activities were determined in a reaction mixture containing 50 mM N-[2-hydroxyethyl]-piperazine-N'-[2-ethanesulfonic acid] (HEPES) or 50 mM triethanolamine.cndot.HCl, pH 7.5, 5 mM MnCl2, 100 μM 5'ATP, [α-^32 p]5'ATP (ca. 2 to 5×10^5 dpm), 0.1% (w/v) Lubrol-PX, 1 mM 3-isobutyl-1-methyl-xanthine, 1 mM dithiothreitol, 1 mg bovine serum albumin per ml, 2 mM creatine phosphate, 100 μg creatine kinase per ml, and 100 μM forskolin, in a reaction volume of 100 μl. Reactions were for 15 min at 30° C. and were terminated by the addition of 0.6 ml 120 mM zinc acetate containing 0.5 mM cAMP and 0.5 ml 144 mM sodium carbonate as described by Jakobs et al.^59.
The resulting ZnCO3 precipitate was sedimented by centrifugation in a desktop microfuge. The [^32 P] cAMP in the supernatant fraction was then purified free of residual substrate and other contaminants by sequential chromatography on Dowex-50 and Al2 O3, as described by Salomon et al.^60. [^32 P]cAMP was quantified by Cherenkov radiation in a liquid scintillation spectrometer.
The synthesized adenine derivatives, 1-5, 8, 11-13, 16, 19-21, 34 and 35 were each tested separately in vitro for their ability to inhibit adenylyl cyclase activity by administration of each compound to the above-describedadenylyl cyclase assay.

[3] = molecular target: rat brain adenylyl cyclase; conditions: Table I, footnote a: values from Johnson et al. 1989; read-out: IC50 for inhibition of rat brain adenylyl cyclase; cited from earlier work
[4] = test system: intestinal epithelium; conditions: cited from earlier work
[5] = test system: adenylyl cyclases; conditions: related art, cited from earlier work; for inhibition of adenylyl cyclases via P-site: in words; for IC50: read-out: IC50 for inhibition of adenylyl cyclases
[6] = molecular target: adenylyl cyclase, bovine brain, purified; experiment: Inhibition of purified bovine brain adenylyl cyclase (Table II); assay type: biochemical; conditions: forskolin eluates from forskolin affinity column
[7] = test system: adenylyl cyclase; experiment: Inhibition of adenylyl cyclase in intact cells and tissues; assay type: cell-based; conditions: cell permeable variants
[8] = Table I, 5 mM MnCl2, 100 μM 5'ATP, 100 μM forskolin, pH 7.5, 15 min at 30° C., read-out: IC50 for inhibition of rat brain adenylyl cyclase
[9] = Table II, rat brain, detergent extract, values from Table I, read-out: IC50, rat brain detergent extract
[10] = modified or replaced ribosyl moiety

Sequence of adenylyl cyclase, Type I, purified recombinant (P19754 whole entry): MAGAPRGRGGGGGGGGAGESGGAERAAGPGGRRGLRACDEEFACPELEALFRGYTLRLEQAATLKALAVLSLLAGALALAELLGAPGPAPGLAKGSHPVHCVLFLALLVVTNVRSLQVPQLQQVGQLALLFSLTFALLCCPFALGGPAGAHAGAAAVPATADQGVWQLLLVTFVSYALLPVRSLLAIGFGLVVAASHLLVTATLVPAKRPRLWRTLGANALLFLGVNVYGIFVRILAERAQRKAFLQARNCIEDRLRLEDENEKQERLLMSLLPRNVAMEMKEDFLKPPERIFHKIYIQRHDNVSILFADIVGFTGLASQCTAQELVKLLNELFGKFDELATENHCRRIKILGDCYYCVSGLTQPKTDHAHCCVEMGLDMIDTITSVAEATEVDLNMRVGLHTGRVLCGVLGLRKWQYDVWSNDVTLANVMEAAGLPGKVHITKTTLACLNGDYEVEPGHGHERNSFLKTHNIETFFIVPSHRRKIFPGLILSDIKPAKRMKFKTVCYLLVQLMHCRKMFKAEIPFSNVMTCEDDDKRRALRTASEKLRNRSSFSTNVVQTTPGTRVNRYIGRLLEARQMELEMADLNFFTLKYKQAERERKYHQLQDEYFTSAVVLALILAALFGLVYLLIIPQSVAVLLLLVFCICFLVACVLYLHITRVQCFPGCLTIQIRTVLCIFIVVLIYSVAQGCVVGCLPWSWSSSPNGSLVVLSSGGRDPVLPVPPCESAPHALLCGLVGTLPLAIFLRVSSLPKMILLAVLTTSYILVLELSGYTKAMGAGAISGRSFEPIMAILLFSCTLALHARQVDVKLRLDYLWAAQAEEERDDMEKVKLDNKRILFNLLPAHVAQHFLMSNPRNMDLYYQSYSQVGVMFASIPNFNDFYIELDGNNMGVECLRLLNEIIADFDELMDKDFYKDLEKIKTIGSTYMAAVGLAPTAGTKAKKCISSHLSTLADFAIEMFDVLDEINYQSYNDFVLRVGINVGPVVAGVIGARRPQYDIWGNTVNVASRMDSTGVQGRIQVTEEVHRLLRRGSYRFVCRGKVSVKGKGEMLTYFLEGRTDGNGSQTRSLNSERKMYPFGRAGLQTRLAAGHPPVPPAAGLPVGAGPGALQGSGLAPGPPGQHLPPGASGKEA

SMILES: C[C@H]1O[C@@H](n2cnc3c(N)ncnc32)C[C@@H]1OP(=O)(O)O [2'5'dd3'AMP]
- IC50 [1]: 1.99 µM
- IC50 [2, 8]: 0.46 µM
- IC50 [2, 9]: 0.46 µM

SMILES: C[C@H]1O[C@@H](n2cnc3c(N)ncnc32)C[C@@H]1O [2',5'-dideoxyadenosine]
- IC50 [3]: 2.7 µM
- counteracting effects of cholera intoxication [4]: used to counteract the effects of cholera intoxication in intestinal epithelium

SMILES: Nc1ncnc2c1ncn2[C@H]1C[C@H](O)[C@@H](CO)O1 [2'-deoxyadenosine]
- IC50 [3]: 15 µM

SMILES: Nc1ncnc2c1ncn2[C@H]1C[C@H](OP(=O)(O)O)[C@@H](CO)O1 [2'd3'AMP]
- IC50 [3]: 1.2 µM

SMILES: Nc1nc(F)nc2c1ncn2[C@H]1C[C@H](O)[C@@H](CO)O1 [2-fluoro-2'-deoxyadenosine]
- inhibition of adenylyl cyclases via P-site [5]: inhibitory

SMILES: Nc1nc(F)nc2c1ncn2[C@@H]1O[C@H](CO)[C@@H](O)[C@H]1O [2-fluoroadenosine]
- inhibition of adenylyl cyclases via P-site [5]: inhibitory

SMILES: C[C@H]1O[C@@H](n2cnc3c(N)ncnc32)C[C@@H]1OC(=O)c1ccc(S(=O)(=O)F)cc1 [3'-(4-fluorosulfonylbenzoyl) -2', 5'-dideoxyadenosine]
- inhibition of adenylyl cyclases via P-site [5]: inhibitory effectiveness

SMILES: C[C@H]1O[C@@H](n2cnc3c(N)ncnc32)C[C@@H]1OC(=O)CCC(=O)O [3'-succinyl-2', 5'-dideoxyadenosine]
- inhibition of adenylyl cyclases via P-site [5]: inhibitory effectiveness

SMILES: Nc1ncnc2c1ncn2[C@@H]1O[C@H](CO)[C@@H](OP(=O)(O)O)[C@H]1O [3'AMP]
- IC50 [2, 8]: 8.9 µM

SMILES: Nc1ncnc2c1ncn2C1CCCO1 (centres unmarked) [9-(tetrahydro-2-furyl)-adenine]
- IC50 [5, 10]: ~10 µM

SMILES: CC1CCC(n2cnc3c(N)ncnc32)O1 (centres unmarked) [9-(tetrahydro-5-methyl-2-furyl)-adenine]
- IC50 [5, 10]: ~8 µM

SMILES: Nc1ncnc2c1ncn2C1CCCC1 [9-cyclopentyl-adenine]
- IC50 [5, 10]: ~20 µM

SMILES: Nc1ncnc2c1ncn2Cc1ccco1 [9-furfuryl-adenine]
- IC50 ([5]; unit printed kM): ~26 µM

SMILES: Nc1ncnc2c1ncn2[C@@H]1O[C@H](CO)[C@@H](O)[C@@H]1O [9-β-D-arabinofuranosyl-adenine]
- IC50 [5, 10]: ~100 µM

SMILES: Nc1ncnc2c1ncn2[C@@H]1O[C@H](CO)[C@H](O)[C@H]1O [9-β-D-xylofuranosyl-adenine]
- IC50 [5, 10]: ~25 µM

SMILES: C[C@H]1O[C@@H](n2cnc3c(N)ncnc32)C[C@@H]1OP(=O)(O)OCCN(C)S(=O)(=O)c1cccc2c(N(C)C)cccc12 [Compound 1, 2', 5'-dideoxyadenosine-3'-[2-([(5-dimethylamino-1-naphthalenesulfonamido) -(N-methyl)]-aminoethyl)-phosphate]]
- IC50 [2, 8]: 3 µM
- inhibition of adenylyl cyclase activity compared with adenosine [2]: inhibited adenylyl cyclase activity at concentrations considerably lower than that for adenosine

SMILES: CC(C)CCC[C@@H](C)[C@H]1CC[C@H]2[C@@H]3CC=C4C[C@@H](OP(=O)(O)O[C@H]5C[C@H](n6cnc7c(N)ncnc76)O[C@@H]5C)CC[C@]4(C)[C@H]3CC[C@]12C [Compound 2, 2', 5'dideoxyadenosine-3'-[(3-cholesteryl)-phosphate]]
- IC50 [2, 8]: > 300 µM
- inhibition of adenylyl cyclase activity compared with adenosine [2]: less effective than adenosine in the inhibition of adenylyl cyclase activity

SMILES: C[C@H]1O[C@@H](n2cnc3c(N)ncnc32)C[C@@H]1OP(=O)(O)OP(=O)(O)O [Compound 3, 2', 5'-dideoxyadenosine-3'-diphosphate]
- IC50 [6]: 0.56 µM
- IC50 [1]: 0.25 µM
- IC50 [2, 8]: 0.1 µM
- IC50 [2, 9]: 0.1 µM

SMILES: C[C@H]1O[C@@H](n2cnc3c(N)ncnc32)C[C@@H]1OP(=O)(O)OP(=O)(O)OP(=O)(O)O [Compound 4, 2', 5'-dideoxyadenosine-3'-triphosphate]
- IC50 [6]: 0.12 µM
- IC50 [1]: 0.17 µM
- IC50 [2, 8]: 0.04 µM
- IC50 [2, 9]: 0.04 µM

SMILES: C[C@H]1O[C@@H](n2cnc3c(N)ncnc32)C[C@@H]1OP(=O)(O)OP(=O)(O)OP(=O)(O)OP(=O)(O)O [Compound 5, 2', 5'-dideoxyadenosine-3'-tetraphosphate]
- IC50 [2, 8]: 0.01 µM

SMILES: C[C@H]1O[C@@H](n2cnc3c(N)ncnc32)C[C@@H]1OP(O)(O)=S [Compound 8, 2', 5'-dideoxyadenosine-3'-O-thiophosphate]
- inhibition of adenylyl cyclase activity compared with adenosine [2]: inhibited adenylyl cyclase activity at concentrations considerably lower than that for adenosine

SMILES: Nc1ncnc2c1ncn2[C@H]1C[C@H](OP(=O)(O)OP(=O)(O)O)[C@@H](CO)O1 [Compound 11, 2'-deoxyadenosine-3'-diphosphate]
- IC50 [2, 8]: 0.14 µM

SMILES: Nc1ncnc2c1ncn2[C@H]1C[C@H](OP(=O)(O)OP(=O)(O)OP(=O)(O)O)[C@@H](CO)O1 [Compound 12, 2'-deoxyadenosine-3'-triphosphate]
- IC50 [2, 8]: 0.09 µM

SMILES: Nc1ncnc2c1ncn2[C@H]1C[C@H](OP(=O)(O)OP(=O)(O)OP(=O)(O)OP(=O)(O)O)[C@@H](CO)O1 [Compound 13, 2'-deoxyadenosine-3'-tetraphosphate]
- IC50 [2, 8]: 0.013 µM

SMILES: Nc1ncnc2c1ncn2[C@H]1C[C@H](OP(O)(O)=S)[C@@H](CO)O1 [Compound 16, 2'-deoxyadenosine-3'-O-thiophosphate]
- inhibition of adenylyl cyclase activity compared with adenosine [2]: inhibited adenylyl cyclase activity at concentrations considerably lower than that for adenosine

SMILES: Nc1nc(F)nc2c1ncn2C1CCCC1 [Compound 19, 9-cyclopentyl-2-fluoro-9H-adenine]
- inhibition of the enzyme in intact cells and tissues [7]: inhibit the enzyme in intact cells and tissues
- inhibition of adenylyl cyclase activity compared with adenosine [2]: inhibited adenylyl cyclase activity at concentrations considerably lower than that for adenosine

SMILES: Nc1ncnc2c1ncn2[C@@H]1O[C@H](CO)[C@@H](OP(=O)(O)OP(=O)(O)O)[C@H]1O [Compound 34, adenosine-3'-diphosphate]
- IC50 [2, 8]: 3.9 µM

SMILES: Nc1ncnc2c1ncn2[C@@H]1O[C@H](CO)[C@@H](OP(=O)(O)OP(=O)(O)OP(=O)(O)O)[C@H]1O [Compound 35, adenosine-3'-triphosphate]
- IC50 [2, 8]: 2 µM

SMILES: Nc1ncnc2c1ncn2[C@@H]1O[C@H](CO)[C@@H](O)[C@H]1O [adenosine]
- IC50 [3]: 82 µM

SMILES: Nc1cc[nH]c(=O)n1 [cytosine]
- inhibition of adenylyl cyclases via P-site [5]: inactive

SMILES: Nc1ncnc2c1ncn2C[C@@H](O)[C@@H](O)C(=O)O [eritadenine]
- IC50 [5, 10]: 6 to 12 µM

SMILES: Nc1nc2c(ncn2[C@@H]2O[C@H](CO)[C@@H](O)[C@H]2O)c(=O)[nH]1 [guanosine]
- inhibition of adenylyl cyclases via P-site [5]: inactive

SMILES: OC[C@H]1O[C@@H](n2cnc3c(O)ncnc32)[C@H](O)[C@@H]1O [inosine]
- inhibition of adenylyl cyclases via P-site [5]: inactive

SMILES: Cc1cn([C@H]2C[C@H](O)[C@@H](CO)O2)c(=O)[nH]c1=O [thymidine]
- inhibition of adenylyl cyclases via P-site [5]: inactive

SMILES: O=c1ccn([C@@H]2O[C@H](CO)[C@@H](O)[C@H]2O)c(=O)[nH]1 [uridine]
- inhibition of adenylyl cyclases via P-site [5]: inactive

Reference: patent publication US5795756A, “Method and compounds for the inhibition of adenylyl cyclase” (priority 1996, dated 1998)
